Reference: patent US12178892B2, “Compounds for positron emission tomography” (Endocyte, Inc., priority 2013, dated 2024)

Legend:
FR [1] = assay: Binding in A549 xenograft homogenates; conditions: A549 xenografts
KB tumor xenografts [2] = assay: Ex vivo (postmortem) biodistribution, KB tumor xenografts; assay type: in vivo, nude mice; conditions: for FR specificity: in both KB xenograft tumor tissues and A549 xenograft tumor tissues; for radiotracer level in kidneys: mouse, in vivo
Description: EXAMPLE. […] Without being bound by theory, it is believed herein that the highest accumulation of radioactivity in kidneys, along with the relative low uptake of radiotracer in the hepatobiliary system i.e. liver, bile and intestine/feces supports that renal elimination is the predominant excretion pathway.

A549 tumor xenografts = assay: Ex vivo (postmortem) biodistribution, A549 tumor xenografts; parameters: species or system nude mice; conditions: mouse
Description: It is to be understood that the vertical axis has been expanded and that the kidney data is truncated. […] It is to be understood that the vertical axis has been expanded and that the kidney data is truncated. […] EXAMPLE. […] Without being bound by theory, it is believed herein that the highest accumulation of radioactivity in kidneys, along with the relative low uptake of radiotracer in the hepatobiliary system i.e. liver, bile and intestine/feces supports that renal elimination is the predominant excretion pathway.

PSMA = target: T1, PSMA (Homo sapiens, UniProt Q04609); assay: In vitro study in PSMA(−) and PSMA(+) cell lines, Kd; assay type: cell-based; conditions: PSMA(−) cell line (PC3) and PSMA(+) cell lines (LnCaP and PIP—PC3); ^67Ga as surrogate of ^68Ga
T1 construct: LnCap is a PSMA (+) cell line; and PIP—PC3 is a transfect cell line with higher PSMA expression; endogenous in cells; host or cells: LnCaP (endogenous) and PIP-PC3 (PSMA-transfected PC3); PC3 as the PSMA(-) control
Experimental: (§1) EXAMPLE. In vitro evaluation of DUPA-EAOA-Phe-Phe-NOTA-^68Ga radiotracer (^68Ga-QC08009). ^67Ga has a longer half life than ^68Ga (about 3.3 days versus about 68 minutes, respectively). Thus, ^67Ga is used as a surrogate of ^68Ga for in vitro evaluation of Kd values and tissue imaging. It is to be understood that the in vitro evaluation of Kd values and tissue imaging observed for ^67Ga is predictive of ^68Ga. DUPA-EAOA-Phe-Phe-NOTA-^67Ga (67Ga-NOTA-LC-PSMA2) was prepared in nearly quantitative radiochemical yield. […] PC3 is a PSMA (−) cell line; LnCap is a PSMA (+) cell line; and PIP—PC3 is a transfect cell line with higher PSMA expression.

[3] = test system: PSMA(+) prostate cancer tissues; assay: Binding to PSMA(+) prostate cancer tissues (tissue imaging); conditions: compared to ^67Ga-DKFZ-PSMA11
Experimental: as §1

PC3 cells = assay: In vitro uptake by PC3 cells; assay type: cell-based; conditions: PC3, PSMA (−) cell line
Experimental: as §1

LnCaP cells = assay: In vitro uptake by LnCaP cells; assay type: cell-based
Experimental: as §1

PIP—PC3 cells = assay: In vitro uptake by PIP—PC3 cells; assay type: cell-based
Experimental: as §1

in vivo = assay: in vivo; parameters: species or system mice; conditions: mouse, total radioactivity
Description: (§2) EXAMPLE. In vivo PET imaging and BioD study of DUPA-EAOA-Phe-Phe-NOTA-^68Ga radiotracer (^68Ga-QC08009). […] Without being bound by theory, it is believed herein that the data support that the primary elimination pathway is in urine.

[4] = test system: PSMA (+) LnCaP xenografts; assay: in vivo; parameters: species or system mice; conditions: mouse
Description: as §2

FR [5] = target: T2, FR (Homo sapiens, UniProt P15328); assay: Binding to FR in KB xenograft tumor crude homogenate (concentration dependent binding, Scatchard analysis); conditions: for non-specific binding: KB homogenates; for binding sites and affinity (Scatchard analyses): all cell xenografts
T2 construct: to FR in KB and Cal51 tumor crude homogenate; from tissue; host or cells: KB and Cal51 tumour xenograft crude homogenates
Experimental: (§3) EXAMPLE. The specificity of the radionuclide containing conjugates binding to FR is evaluated against KB xenografts homogenates and Cal51 xenografts homogenates. […] Scatchard analyses were also performed. […] Without being bound by theory, it is believed herein that the moderate expression of FR in Cal51 xenografts accounts for the lower binding affinity. Binding affinities of ^18F-AIF-QC07017 (2) to FR in KB and Cal51 tumor crude homogenate.

FR [6] = target: T2, FR; assay: Binding to FR in Cal51 xenograft tumor crude homogenate (concentration dependent binding, Scatchard analysis); conditions: Cal51 xenografts
Experimental: as §3

KB tumor xenografts [7] = assay: μPET imaging under baseline and competed conditions in nude mice bearing KB tumor xenografts; assay type: in vivo; conditions: competed group, 100 μg of folic acid 10 min before i.v. injection
Experimental: EXAMPLE. μPET imaging was performed on nude mice bearing KB tumor xenografts under baseline and competed conditions to evaluate the in vivo binding specificity of ^18F-AIF-QC07017 (2) to FR. Nude mice bearing KB tumor xenografts on their left shoulder were injected with 0.30-0.40 mCi (2). […] Without being bound by theory, it is believed herein that the high radioactivity found in kidneys was due to the uptake mediated by FR that is expressed in the proximal tubule cells in kidneys and the potential accumulation of radiotracer via renal excretion, which was further supported by the biodistribution studies described herein. With the exception of the liver, significant uptake in other organs was not observed.

[8] = KB xenografts, tumor crude homogenate

T2 sequence (P15328 25-234): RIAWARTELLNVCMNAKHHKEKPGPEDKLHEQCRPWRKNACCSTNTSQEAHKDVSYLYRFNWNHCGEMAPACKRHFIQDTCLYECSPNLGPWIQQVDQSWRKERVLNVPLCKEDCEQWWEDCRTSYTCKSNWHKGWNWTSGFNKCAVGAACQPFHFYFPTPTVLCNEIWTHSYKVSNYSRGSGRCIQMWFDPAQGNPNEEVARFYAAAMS
T1 sequence (Q04609 whole entry): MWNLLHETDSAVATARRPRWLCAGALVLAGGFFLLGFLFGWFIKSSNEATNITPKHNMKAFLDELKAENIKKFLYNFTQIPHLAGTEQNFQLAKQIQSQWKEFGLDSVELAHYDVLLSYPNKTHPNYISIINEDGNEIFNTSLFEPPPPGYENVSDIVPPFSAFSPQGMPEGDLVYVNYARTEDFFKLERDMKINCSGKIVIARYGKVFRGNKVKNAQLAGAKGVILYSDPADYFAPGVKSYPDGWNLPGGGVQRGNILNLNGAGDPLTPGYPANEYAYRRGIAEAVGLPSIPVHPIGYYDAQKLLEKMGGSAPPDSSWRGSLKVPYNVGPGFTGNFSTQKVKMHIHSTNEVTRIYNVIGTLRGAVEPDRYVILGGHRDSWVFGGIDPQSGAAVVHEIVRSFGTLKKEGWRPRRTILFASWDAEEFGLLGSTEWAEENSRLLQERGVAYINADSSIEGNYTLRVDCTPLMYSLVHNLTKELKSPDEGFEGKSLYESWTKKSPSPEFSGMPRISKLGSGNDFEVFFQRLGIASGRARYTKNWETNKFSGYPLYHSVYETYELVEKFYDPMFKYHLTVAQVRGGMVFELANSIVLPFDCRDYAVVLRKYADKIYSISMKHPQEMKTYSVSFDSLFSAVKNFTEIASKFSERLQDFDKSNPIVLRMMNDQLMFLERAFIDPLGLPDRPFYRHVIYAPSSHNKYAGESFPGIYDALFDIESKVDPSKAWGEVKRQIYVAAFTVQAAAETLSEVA

SMILES	binding affinity (in words) (FR [5]; KB xenografts)	Bmax (FR [5]; [8]) [nM]	binding sites and affinity (Scatchard analyses) (FR [5])	binding affinity (in words) (FR [6])	Bmax (FR [6]; tumor crude homogenate) [nM]	binding affinity (in words) (FR [1])	FR specificity (KB tumor xenografts [2])	radiotracer level in kidneys (KB tumor xenografts [2])	accumulation in A549 xenograft tumor tissues (A549 tumor xenografts)	non-specific binding (FR [5])	other results
Nc1nc2ncc(CNc3ccc(C(=O)N[C@@H](CCC(=O)NCCOCCOCCOCCOCCOCCOCCOCCOCCOCCOCCOCCOCCC(=O)NCCNC(=O)CN4CCN(CC(=O)O)CCN(CC(=O)O)CC4)C(=O)O)cc3)nc2c(=O)[nH]1 (Al18F complex, metal not drawn) [^18F-AIF-QC07043]	–	–	–	–	–	lowest binding affinity	comparable to etarfolatide (EC20)	highest signal	comparable to the liver	–	–
O=C(O)CCC(NC(=O)NC(CCC(=O)NCCCCCCCC(=O)N[C@@H](Cc1ccccc1)C(=O)N[C@@H](Cc1ccccc1)C(=O)NCCNC(=O)CN1CCN(CC(=O)O)CCN(CC(=O)O)CC1)C(=O)O)C(=O)O (single isomer, unassigned) [^67Ga-NOTA-LC-PSMA2, DUPA-EAOA-Phe-Phe-NOTA-^67Ga, metal not drawn]	–	–	–	–	–	–	–	–	–	–	Kd (PSMA): 8.45 ± 2.16 nM; binding to PSMA(+) prostate cancer tissues [3]: superior binding
O=C(O)CCC(NC(=O)NC(CCC(=O)NCCCCCCCC(=O)N[C@@H](Cc1ccccc1)C(=O)N[C@@H](Cc1ccccc1)C(=O)NCCNC(=O)CN1CCN(CC(=O)O)CCN(CC(=O)O)CC1)C(=O)O)C(=O)O (single isomer, unassigned) [^68Ga-QC08009, DUPA-EAOA-Phe-Phe-NOTA-^68Ga, metal not drawn]	–	–	–	–	–	–	–	–	–	–	uptake by cells (PC3 cells): minimal; uptake by cells when competed (PC3 cells; competing ligand): did not change when competed; uptake by cells (LnCaP cells; PSMA (+) cell line): substantial; uptake by cells when competed (LnCaP cells; competing ligand): blocked by competing ligand; uptake by cells when competed (PIP—PC3 cells; PIP—PC3, competing ligand): blocked by competing ligand; uptake by cells (PIP—PC3 cells; PIP—PC3, transfect cell line with higher PSMA expression): substantial, with PIP—PC3 cells showing the highest uptake; tissue uptake dose (in vivo): 4.29 %ID; accumulation in kidneys [4]: minor accumulation

Continued, in another order:

binding affinity (in words) (FR [5]; KB xenografts)	Bmax (FR [5]; [8]) [nM]	binding sites and affinity (Scatchard analyses) (FR [5])	binding affinity (in words) (FR [6])	Bmax (FR [6]; tumor crude homogenate) [nM]	SMILES	binding affinity (in words) (FR [1])	FR specificity (KB tumor xenografts [2])	radiotracer level in kidneys (KB tumor xenografts [2])	accumulation in A549 xenograft tumor tissues (A549 tumor xenografts)	non-specific binding (FR [5])	other results
high specific binding affinity	511	bound one site with high affinity	Moderate binding affinity	36	Nc1nc2ncc(CNc3ccc(C(=O)N[C@@H](CCC(=O)NCCOCCOCCNC(=O)CN4CCN(CC(=O)O)CCN(CC(=O)O)CC4)C(=O)O)cc3)nc2c(=O)[nH]1 [^18F-AIF-QC07017]	lowest binding affinity	comparable to etarfolatide (EC20)	highest signal	comparable to the liver	Significant non-specific binding was not observed	Kd (FR [5]; [8]): 0.7 nM; binding by self competition (FR [5]; human tumor xenografts (KB and Cal51)): Displaceable and saturable binding; Kd (FR [6]; tumor crude homogenate): 1.1 nM; tumor uptake under competition with folic acid (KB tumor xenografts [7]): completely inhibited
high specific binding affinity	241	bound one site with high affinity	Moderate binding affinity	13	Nc1nc2ncc(CNc3ccc(C(=O)N[C@@H](CCC(=O)NCCOCCOCCOCCOCCOCCOCCOCCOCCOCCOCCOCCOCCC(=O)NCCNC(=O)CN4CCN(CC(=O)O)CCN(CC(=O)O)CC4)C(=O)O)cc3)nc2c(=O)[nH]1 [^18F-AIF-QC07043]	–	–	–	–	Significant non-specific binding was not observed	–
